Data on two compounds can be found in PMC6225212, “Synthesis and Pharmacological Evaluation of Novel Silodosin-Based Arylsulfonamide Derivatives as α1A/α1D-Adrenergic Receptor Antagonist with Potential Uroselective Profile” (Molecules : A Journal of Synthetic Chemistry and Natural …, 2018).

One data set relates to α1-ARs. In words: Radioligand binding, displacement of [3H]-Prazosin from α1-ARs on rat cerebral cortex. The settings on record: for Sα2/α1 (ratio of affinity for α2- and α1-ARs): Ki α2 / Ki α1; for Ki: [3H]-Prazosin, rat cerebral cortex, ± SEM, two independent experiments. The protocol:
The pharmacological profile of the new compounds was assessed in radioligand-binding assays as the ability to displace [^3H]-Prazosin or [^3H]-Clonidine from α1- and α2-ARs, respectively, on rat cerebral cortex. The inhibition constants (Ki) were calculated from the Cheng-Prusoff equation [24].
The affinity of the obtained compounds was evaluated by radioligand-binding assays (the ability to displace [^3H]-Prazosin and [^3H]-Clonidine from α1- and α2-ARs, respectively) on rat cerebral cortex. The brains are homogenized in 20 volumes of an ice-cold 50 mM Tris-HCl buffer (pH 7.6) and is centrifuged (MPW Med. Instruments, Warsaw, Poland) at 20,000 g for 20 min (0–4 °C). The cell pellet is resuspended in the Tris-HCl buffer and centrifuged again. Radioligand-binding assays are performed in plates (MultiScreen/Millipore, Burlington, MA, USA). The final incubation mixture (final volume 300 µL) consisted of 240 µL of the membrane suspension, 30 µL of [^3H]-Prazosin (0.2 nM) or [^3H]-Clonidine (2 nM) solution, and 30 µL of the buffer containing seven to eight concentrations (10^−11 to 10^−4 M) of the tested compounds. For measuring the unspecific binding, phentolamine, 10 µM (in the case of [^3H]-Prazosin) and clonidine, and 10 µM (in the case of [^3H]-Clonidine), were applied. The incubation was terminated by rapid filtration over glass fiber filters (Whatman GF/C, Sigma-Aldrich) using a vacuum manifold (Millipore). The filters were then washed twice with the assay buffer and placed in scintillation vials with a liquid-scintillation cocktail. Radioactivity was measured in a WALLAC 1409 DSA liquid-scintillation counter (BioSurplus, San Diego, CA, USA). All the assays were made in duplicate.
On the technique in general: Displacement assays read how much labelled ligand stays bound in the presence of the test substance.

The target of a further data set is T1, hERG potassium channel (Homo sapiens, UniProt Q12809).
T1 construct: Eurofins (Celle-Lévescault, France)
T1 sequence (Q12809 whole entry): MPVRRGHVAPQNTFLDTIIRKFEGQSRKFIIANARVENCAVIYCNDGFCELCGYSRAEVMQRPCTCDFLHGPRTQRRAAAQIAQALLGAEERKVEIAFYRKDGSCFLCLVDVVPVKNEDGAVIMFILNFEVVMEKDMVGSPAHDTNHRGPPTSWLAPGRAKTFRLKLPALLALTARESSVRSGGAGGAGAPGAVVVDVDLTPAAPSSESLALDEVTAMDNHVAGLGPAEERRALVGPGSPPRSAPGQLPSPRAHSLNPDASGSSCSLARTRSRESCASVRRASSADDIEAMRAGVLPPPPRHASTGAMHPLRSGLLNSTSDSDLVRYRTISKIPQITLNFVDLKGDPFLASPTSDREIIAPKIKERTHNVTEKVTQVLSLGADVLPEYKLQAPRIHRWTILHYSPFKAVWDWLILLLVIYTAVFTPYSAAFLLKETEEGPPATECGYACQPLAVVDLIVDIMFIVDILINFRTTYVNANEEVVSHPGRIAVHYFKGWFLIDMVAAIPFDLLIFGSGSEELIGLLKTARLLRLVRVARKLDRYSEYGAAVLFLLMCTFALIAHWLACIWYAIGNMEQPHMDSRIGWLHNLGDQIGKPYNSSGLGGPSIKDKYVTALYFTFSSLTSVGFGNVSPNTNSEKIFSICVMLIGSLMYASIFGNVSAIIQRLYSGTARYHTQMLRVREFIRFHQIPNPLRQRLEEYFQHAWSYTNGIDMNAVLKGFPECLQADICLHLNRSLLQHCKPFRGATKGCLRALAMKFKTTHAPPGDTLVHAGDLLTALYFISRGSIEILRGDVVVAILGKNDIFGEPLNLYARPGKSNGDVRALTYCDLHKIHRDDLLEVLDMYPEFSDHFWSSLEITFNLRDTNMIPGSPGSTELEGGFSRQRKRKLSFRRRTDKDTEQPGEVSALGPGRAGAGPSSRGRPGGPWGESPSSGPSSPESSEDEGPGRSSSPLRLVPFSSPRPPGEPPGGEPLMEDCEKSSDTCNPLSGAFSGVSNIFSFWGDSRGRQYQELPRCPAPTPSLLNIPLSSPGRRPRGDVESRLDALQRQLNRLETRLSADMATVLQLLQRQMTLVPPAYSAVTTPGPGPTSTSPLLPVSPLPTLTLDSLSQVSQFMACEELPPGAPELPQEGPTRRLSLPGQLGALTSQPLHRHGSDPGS
Description: Off-target panel at Eurofins Cerep, hERG. The settings on record: read-out: inhibition at hERG channels. The data set is classed as binding. As to the method:
(§1) Finally, the percentage of inhibition for selected compounds 9 and 10 for off-target histaminic H1R, muscarinic M1R, adrenergic β1-AR and potassium ion channel hERG were assessed at Eurofins (Celle-Lévescault, France) according to the procedure online at www.eurofins.com.
On the technique in general: The hERG channel carries a current that helps repolarise heart muscle cells.

In the next data set the target is T2, human 5-HT1A (Homo sapiens, UniProt P08908).
T2 construct: expressed in transfected cells; host or cells: CHO-K1
T2 sequence (P08908 1-422): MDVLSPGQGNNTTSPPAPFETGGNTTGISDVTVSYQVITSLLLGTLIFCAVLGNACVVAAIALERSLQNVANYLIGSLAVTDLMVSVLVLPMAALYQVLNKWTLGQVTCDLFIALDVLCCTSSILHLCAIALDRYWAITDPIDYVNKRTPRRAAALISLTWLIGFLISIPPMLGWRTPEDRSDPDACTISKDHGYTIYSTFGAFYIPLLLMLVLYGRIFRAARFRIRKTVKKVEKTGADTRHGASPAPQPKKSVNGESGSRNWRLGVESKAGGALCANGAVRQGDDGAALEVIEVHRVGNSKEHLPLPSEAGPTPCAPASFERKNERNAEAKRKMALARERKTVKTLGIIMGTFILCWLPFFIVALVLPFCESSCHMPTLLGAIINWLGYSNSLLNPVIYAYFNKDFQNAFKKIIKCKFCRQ
In words: Radioligand binding [3H]-8-OH-DPAT, membranes from CHO-K1 cells. The conditions noted are these: ± SEM, two independent experiments. The protocol:
(§2) Experiments were performed using membranes from CHO-K1 cells stably transfected with the human 5-HT1A and 5-HT7Rs according to the methods previously described.
(§3) Binding experiments were conducted in 96-well microplates in a total volume of 250 μL of appropriate buffers. The composition of the assay buffers was as follows: 50 mM Tris-HCl, 0.1 mM EDTA, 10 mM MgCl2. The reaction mix included 50 μL solution of test compound, 50 μL of radioligand, and 150 μL of diluted membranes. All assays were incubated for 1 h (5-HT1ARs) or 2 h (5-HT7Rs) at 37 °C. Radioactivity was counted in MicroBeta2 scintillation counter (PerkinElmer, Waltham, MA, USA). Nonspecific binding is defined with 10 µM of 5-HT and 10 µM of methiothepine in 5-HT1AR and 5-HT7R binding experiments, respectively. Each compound was tested in screening assay at two final concentrations of 10 µM and 1 µM.

A further data set concerns the target T3, human 5-HT7Rs (Homo sapiens, UniProt P34969).
T3 construct: expressed in transfected cells; host or cells: CHO-K1
In words: Radioligand binding screening [3H]-LSD, membranes from CHO-K1 cells. The settings on record: for inhibition at 1 µM: 10^−6 M, read-out: 5-HT7 %inh @ 10^−6 M; for inhibition at 0.1 µM: 10^−7 M, read-out: 5-HT7 %inh @ 10^−7 M. As to the method:
as §2
as §3, with “Each compound was tested in screening assay at two final concentrations of 10 µM and 1 µM.” left out

The next data set deals with T4, muscarinic M1R (Homo sapiens, UniProt P11229).
T4 construct: Eurofins (Celle-Lévescault, France)
T4 sequence (P11229 1-460): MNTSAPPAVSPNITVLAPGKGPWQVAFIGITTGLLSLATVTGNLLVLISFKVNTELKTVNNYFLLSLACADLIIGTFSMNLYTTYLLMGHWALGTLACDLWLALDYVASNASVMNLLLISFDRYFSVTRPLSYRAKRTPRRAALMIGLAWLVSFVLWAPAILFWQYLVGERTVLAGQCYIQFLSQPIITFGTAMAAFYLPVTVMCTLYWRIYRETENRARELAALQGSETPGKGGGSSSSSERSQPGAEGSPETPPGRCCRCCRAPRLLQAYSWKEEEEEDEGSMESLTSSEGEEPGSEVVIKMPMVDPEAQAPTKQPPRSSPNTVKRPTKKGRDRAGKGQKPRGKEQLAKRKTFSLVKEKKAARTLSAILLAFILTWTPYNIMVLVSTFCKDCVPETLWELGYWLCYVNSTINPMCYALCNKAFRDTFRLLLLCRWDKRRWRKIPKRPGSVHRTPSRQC
Description: Off-target panel at Eurofins Cerep, M1. The class given is binding. The protocol:
as §1

T3 sequence (P34969 whole entry): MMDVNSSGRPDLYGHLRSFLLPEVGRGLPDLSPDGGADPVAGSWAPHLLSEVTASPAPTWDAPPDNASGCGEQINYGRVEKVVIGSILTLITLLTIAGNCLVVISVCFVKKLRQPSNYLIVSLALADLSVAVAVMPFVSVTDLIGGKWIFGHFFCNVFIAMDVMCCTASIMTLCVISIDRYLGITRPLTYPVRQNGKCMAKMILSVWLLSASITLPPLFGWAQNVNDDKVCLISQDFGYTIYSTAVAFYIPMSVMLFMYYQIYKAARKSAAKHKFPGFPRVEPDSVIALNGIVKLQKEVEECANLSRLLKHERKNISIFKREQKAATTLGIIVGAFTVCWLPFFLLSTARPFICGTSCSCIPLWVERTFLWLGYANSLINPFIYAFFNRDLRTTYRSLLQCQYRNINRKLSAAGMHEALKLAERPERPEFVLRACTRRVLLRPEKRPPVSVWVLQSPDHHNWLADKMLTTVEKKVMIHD

Take `O=S(=O)(NCC1CCN(CCOc2ccccc2OCC(F)(F)F)CC1)c1cc(Cl)ccc1F` [Compound 10, 5-Chloro-2-fluoro-N-[(1-{2-[(2,2,2-trifluoroethoxy)phenoxy]ethyl}piperidin-4-yl)methyl]benzenesulfonamide]: the “Sα2/α1 (ratio of affinity for α2- and α1-ARs)” value in the data set on α1-ARs stood at 23. Besides, the values for the Ki on α1-ARs and on human 5-HT1A were 26 ± 1 nM and 46 ± 0.6 nM, respectively. In addition, the figures for the inhibition at 1 µM at hERG potassium channel, at human 5-HT7Rs and on muscarinic M1R were less than 50%, 94% and less than 50%, respectively. For the same compound, the inhibition at 0.1 µM on human 5-HT7Rs is 61%.

Take `O=S(=O)(NCC1CCN(CCOc2ccccc2OCC(F)(F)F)CC1)c1cccc(Cl)c1F` [Compound 9, 3-Chloro-2-fluoro-N-[(1-{2-[(2,2,2-trifluoroethoxy)phenoxy]ethyl}piperidin-4-yl)methyl]benzenesulfonamide]: the “Sα2/α1 (ratio of affinity for α2- and α1-ARs)” value in the data set with α1-ARs turned out to be 17. Besides, the results for the Ki on α1-ARs and on human 5-HT1A were 50 ± 2 nM and 70 ± 3.5 nM, respectively. For the same compound, the results for the inhibition at 1 µM at hERG potassium channel, at human 5-HT7Rs and against muscarinic M1R were less than 50%, 93% and less than 50%, respectively. On human 5-HT7Rs, the inhibition at 0.1 µM was 57%.

As a reminder, the Ki is a dissociation constant, usually derived from enzyme kinetics or from competition with a known ligand.
